Literature values in US11234933B1, “Surface-modified emulsomes for intranasal delivery of drugs” (King Abdulaziz University, priority 2020, dated 2022).

Conditions: oral route, first pass

- VIN hepatic metabolism: ~75%
SMILES: CCOC(=O)C1=C[C@]2(CC)CCCN3CCc4c(n1c1ccccc41)[C@@H]32 [VIN, Vinpocetine]
